In experiment [1] the target is CDK9/Cyclin K (Homo sapiens) (UniProt P50750+O75909). As to the kind of experiment: Inhibition of human CDK9/cyclin K at 18.6 nM by HotSpot assay relative to control. Type of experiment: protein-complex assay.
Experiment [2] deals with Serine/threonine-protein kinase 25 (Homo sapiens) (UniProt O00506). As to the kind of experiment: Inhibition of human YSK1 at 1.82 nM by HotSpot assay relative to control.
The target in experiment [3] is T1, Testis-specific serine/threonine-protein kinase 2 (Homo sapiens) (UniProt Q96PF2).
T1 sequence (whole entry): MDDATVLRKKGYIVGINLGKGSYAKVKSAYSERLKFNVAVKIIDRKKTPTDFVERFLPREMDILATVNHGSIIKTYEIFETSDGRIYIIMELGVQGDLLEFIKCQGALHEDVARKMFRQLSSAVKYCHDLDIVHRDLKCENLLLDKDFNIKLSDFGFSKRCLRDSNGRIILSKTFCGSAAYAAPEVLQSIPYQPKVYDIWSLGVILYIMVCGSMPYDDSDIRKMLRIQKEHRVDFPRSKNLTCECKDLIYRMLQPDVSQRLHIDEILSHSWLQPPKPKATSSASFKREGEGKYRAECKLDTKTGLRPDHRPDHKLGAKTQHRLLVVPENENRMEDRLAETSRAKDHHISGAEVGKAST
Description: Inhibition of human TSSK2 at 1.82 nM by HotSpot assay relative to control.

The inhibition is the change of the read-out against control, counted positive when it falls.

Sequence of Serine/threonine-protein kinase 25 (Homo sapiens) (O00506 whole entry, looked up): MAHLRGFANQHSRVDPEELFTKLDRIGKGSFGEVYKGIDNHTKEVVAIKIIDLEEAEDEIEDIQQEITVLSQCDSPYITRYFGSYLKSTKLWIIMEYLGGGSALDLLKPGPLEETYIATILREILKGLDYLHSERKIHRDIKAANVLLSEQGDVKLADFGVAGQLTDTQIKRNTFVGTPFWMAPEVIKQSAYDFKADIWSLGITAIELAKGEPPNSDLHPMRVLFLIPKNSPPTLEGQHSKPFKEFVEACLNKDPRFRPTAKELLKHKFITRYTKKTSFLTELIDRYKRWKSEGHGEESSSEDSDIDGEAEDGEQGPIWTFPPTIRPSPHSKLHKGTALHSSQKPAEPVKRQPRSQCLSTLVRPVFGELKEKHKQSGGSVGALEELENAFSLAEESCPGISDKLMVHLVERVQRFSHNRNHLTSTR

Consider `C[C@]1(O)C[C@@H](c2nc(-c3ccc4ccc(-c5ccccc5)nc4c3)c3c(N)nccn32)C1`, for which, in experiment [1], the inhibition is 1.45%.

Regarding `C[C@@]1(C(=O)Nc2ccc(F)nc2)CCCN1c1nc(Nc2cc(C3CC3)n[nH]2)c2cccn2n1`, the inhibition in experiment [2] is 5.25%; in experiment [3], -1.46%.
